{"source": "the NIST ThermoML archive (doi:10.1021/je049778g)", "note": "Numbers after ± are expanded uncertainties.", "data": [{"details": "298.15 K; 101.33 kPa; Liquid", "units": {"mass density": "kg/m3"}, "values": [{"smiles": "CCCO", "note": "[propan-1-ol]", "mass density": "799.5 ± 0.2"}, {"smiles": "CCO", "note": "[ethanol]", "mass density": "785.1 ± 0.3"}, {"smiles": "CO", "note": "[methanol]", "mass density": "786.5 ± 0.3"}, {"smiles": "CC(C)O", "note": "[propan-2-ol]", "mass density": "780.8 ± 0.3"}]}, {"details": "Liquid", "units": {"Normal boiling temperature": "°C"}, "values": [{"smiles": "CCCO", "note": "[propan-1-ol]", "Normal boiling temperature": "97.04 ± 0.03"}, {"smiles": "CCO", "note": "[ethanol]", "Normal boiling temperature": "78.31 ± 0.03"}, {"smiles": "CO", "note": "[methanol]", "Normal boiling temperature": "64.52 ± 0.03"}, {"smiles": "CC(C)O", "note": "[propan-2-ol]", "Normal boiling temperature": "82.26 ± 0.03"}]}]}
